Test results taken from publication PMC4858680, “A platinum-based hybrid drug design approach to circumvent acquired resistance to molecular targeted tyrosine kinase inhibitors” (Scientific Reports, 2016).

Legend:
MET = MET (Homo sapiens, UniProt P08581); experiment: biochemical; conditions: read-out: Percent control
MET(M1250T) [1] = biological target: T1, MET(M1250T) (Homo sapiens, UniProt P08581, M1250T); experiment: biochemical; conditions: read-out: Percent control
EGFR = EGFR (Homo sapiens, UniProt P00533); conditions: 10 μM
MET(M1250T) [2] = biological target: T1, MET(M1250T); conditions: 10 μM
[3] = Chemical stability of the hybrid compounds; conditions: saline, phosphate buffered solution (pH 4 and 7.4), culture medium with 5 mM glutathione
SYK = SYK (Homo sapiens, UniProt P43405); conditions: 10 μM
P-gp (MDCKII–P-gp) = P-gp (MDCKII–P-gp) (Homo sapiens, UniProt P08183); conditions: 10 μM, mean of three experiments
[4] = biological target: ABL1(E317I)-nonphosphorylated (Homo sapiens, UniProt P00519, F317I); conditions: 10 μM
H1975 = experiment: Anticancer activity (cytotoxicity) in NSCLC cell line; format: cell-based; conditions: Homo sapiens, NCI-H1975, read-out: Anticancer activity (IC50) H1975
EPHA6 = biological target: T2, EPHA6 (Homo sapiens, UniProt Q9UF33); experiment: biochemical; conditions: read-out: Percent control
T2 sequence (Q9UF33 23-1036): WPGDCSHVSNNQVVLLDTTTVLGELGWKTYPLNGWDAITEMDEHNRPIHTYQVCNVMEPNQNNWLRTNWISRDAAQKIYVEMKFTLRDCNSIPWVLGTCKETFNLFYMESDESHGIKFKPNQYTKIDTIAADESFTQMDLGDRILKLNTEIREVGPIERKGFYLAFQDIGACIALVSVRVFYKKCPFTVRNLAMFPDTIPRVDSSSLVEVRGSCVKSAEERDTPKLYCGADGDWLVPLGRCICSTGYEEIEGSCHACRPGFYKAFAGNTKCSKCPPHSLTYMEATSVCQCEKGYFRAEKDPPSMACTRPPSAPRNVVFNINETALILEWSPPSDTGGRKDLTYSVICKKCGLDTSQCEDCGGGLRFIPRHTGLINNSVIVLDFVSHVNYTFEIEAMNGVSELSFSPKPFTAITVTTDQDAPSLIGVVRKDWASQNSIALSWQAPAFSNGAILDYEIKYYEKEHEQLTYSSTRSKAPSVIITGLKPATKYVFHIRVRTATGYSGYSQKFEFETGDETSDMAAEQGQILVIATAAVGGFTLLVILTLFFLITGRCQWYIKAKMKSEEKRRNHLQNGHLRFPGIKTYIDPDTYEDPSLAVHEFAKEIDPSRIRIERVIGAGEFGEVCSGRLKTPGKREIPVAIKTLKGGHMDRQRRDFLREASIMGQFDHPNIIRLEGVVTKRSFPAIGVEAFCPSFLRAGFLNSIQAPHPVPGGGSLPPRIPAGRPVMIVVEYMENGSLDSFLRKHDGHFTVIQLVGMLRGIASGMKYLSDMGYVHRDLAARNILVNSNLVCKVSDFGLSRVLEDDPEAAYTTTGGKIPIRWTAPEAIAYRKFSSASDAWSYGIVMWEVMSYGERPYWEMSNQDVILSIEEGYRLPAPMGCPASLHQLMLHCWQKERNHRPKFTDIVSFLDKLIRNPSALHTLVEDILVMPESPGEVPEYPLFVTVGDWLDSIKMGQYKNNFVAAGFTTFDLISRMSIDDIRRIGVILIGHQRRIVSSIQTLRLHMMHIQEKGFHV

EPHB4 = biological target: T3, EPHB4 (Homo sapiens, UniProt P54760); experiment: biochemical; conditions: read-out: Percent control
T3 sequence (P54760 16-987): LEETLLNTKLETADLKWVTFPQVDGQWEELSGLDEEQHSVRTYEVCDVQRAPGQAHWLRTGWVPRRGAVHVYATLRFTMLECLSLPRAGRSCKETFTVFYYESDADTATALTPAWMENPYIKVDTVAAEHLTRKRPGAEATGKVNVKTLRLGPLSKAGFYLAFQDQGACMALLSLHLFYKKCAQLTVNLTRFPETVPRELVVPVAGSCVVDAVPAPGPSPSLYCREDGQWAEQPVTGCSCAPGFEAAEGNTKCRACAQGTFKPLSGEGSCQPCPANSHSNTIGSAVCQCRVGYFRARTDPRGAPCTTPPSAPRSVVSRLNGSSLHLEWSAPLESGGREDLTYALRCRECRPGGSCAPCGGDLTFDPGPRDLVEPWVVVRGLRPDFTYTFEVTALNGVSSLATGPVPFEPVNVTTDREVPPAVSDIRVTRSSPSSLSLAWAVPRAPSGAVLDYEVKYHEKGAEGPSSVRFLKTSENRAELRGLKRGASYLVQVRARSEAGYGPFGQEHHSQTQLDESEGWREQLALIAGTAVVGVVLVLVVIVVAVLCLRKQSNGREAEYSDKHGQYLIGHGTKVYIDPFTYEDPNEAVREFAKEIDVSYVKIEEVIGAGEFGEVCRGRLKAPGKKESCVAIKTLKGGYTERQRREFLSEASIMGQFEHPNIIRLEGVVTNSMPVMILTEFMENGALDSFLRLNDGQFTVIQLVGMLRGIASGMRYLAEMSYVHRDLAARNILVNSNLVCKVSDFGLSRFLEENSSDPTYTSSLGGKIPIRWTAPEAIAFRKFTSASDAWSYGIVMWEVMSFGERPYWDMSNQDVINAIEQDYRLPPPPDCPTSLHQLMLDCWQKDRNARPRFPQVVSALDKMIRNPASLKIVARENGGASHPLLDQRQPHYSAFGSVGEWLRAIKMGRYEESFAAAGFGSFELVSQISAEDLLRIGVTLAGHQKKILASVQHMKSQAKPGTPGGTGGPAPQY

FGFR2 = FGFR2 (Homo sapiens, UniProt P21802); experiment: biochemical; conditions: read-out: Percent control
FLT4 = FLT4 (Homo sapiens, UniProt P35916); experiment: biochemical; conditions: read-out: Percent control
ABL1-nonphosphorylated = ABL1-nonphosphorylated (Homo sapiens, UniProt P00519); experiment: biochemical; conditions: read-out: Percent control

Compound	remaining activity at 10 µM (MET) [%]	remaining activity at 10 µM (MET(M1250T) [1]) [%]	Percent control (MET(M1250T) [2]) [%]	chemical stability in all conditions tested [3]	Percent control (SYK) [%]	IC50 (H1975) [µM]	remaining activity at 10 µM (EPHA6) [%]	remaining activity at 10 µM (EPHB4) [%]	remaining activity at 10 µM (FGFR2) [%]	remaining activity at 10 µM (FLT4) [%]	other results
Cc1ccc(NC(=O)c2ccc(CN3CCN(C)CC3)cc2)cc1Nc1nccc(-c2cccnc2)n1 [Imatinib, reference compound]	100	100									
Cc1ccc(NC(=O)c2ccc(CN3CCN(C)CC3)cc2)cc1Nc1nccc(-c2cccnc2)[n+]1[Pt-2]1([Cl])[NH2+]C2CCCCC2[NH2+]1 (stereo not shown) [1b, oxaliplatin-imatinib]			89	stable							Percent control (EGFR): 89%
COc1cc2c(Nc3ccc(Br)cc3F)[n+]([Pt-2]3([Cl])[NH2+]C4CCCCC4[NH2+]3)cnc2cc1OCC1CCN(C)CC1 (stereo not shown) [3b, oxaliplatin-vandetanib]					85						
C#Cc1cccc(Nc2c3cc(OCCOC)c(OCCOC)cc3nc[n+]2[Pt@SP2-2]([NH3+])([NH3+])[Cl])c1 [2a, cisplatin-erlotinib]			95	stable	88						A to B transport (apparent permeability) (P-gp (MDCKII–P-gp)): 3.32 × 10^−6; B to A transport (apparent permeability) (P-gp (MDCKII–P-gp)): 2.82 × 10^−6; Percent control [4]: 83%
COc1cc2c(Nc3ccc(Br)cc3F)ncnc2cc1OCC1CCN(C)CC1 [Vandetanib, reference compound]						13.8 ± 2.06	0.5	4.9	9.9	9.9	
C#Cc1cccc(Nc2ncnc3cc(OCCOC)c(OCCOC)cc23)c1 [Erlotinib]	27.5	21.9				11.8 ± 3.19	4.2	18	100	17.4	remaining activity at 10 µM (ABL1-nonphosphorylated): 3.2%
